# Biological target: Aminopeptidase N (Homo sapiens, UniProt P15144)
# Experiment: Inhibition of human recombinant APN expressed in HEK293 cells
# Format: cell-based
# Chain of Aminopeptidase N (P15144 whole entry): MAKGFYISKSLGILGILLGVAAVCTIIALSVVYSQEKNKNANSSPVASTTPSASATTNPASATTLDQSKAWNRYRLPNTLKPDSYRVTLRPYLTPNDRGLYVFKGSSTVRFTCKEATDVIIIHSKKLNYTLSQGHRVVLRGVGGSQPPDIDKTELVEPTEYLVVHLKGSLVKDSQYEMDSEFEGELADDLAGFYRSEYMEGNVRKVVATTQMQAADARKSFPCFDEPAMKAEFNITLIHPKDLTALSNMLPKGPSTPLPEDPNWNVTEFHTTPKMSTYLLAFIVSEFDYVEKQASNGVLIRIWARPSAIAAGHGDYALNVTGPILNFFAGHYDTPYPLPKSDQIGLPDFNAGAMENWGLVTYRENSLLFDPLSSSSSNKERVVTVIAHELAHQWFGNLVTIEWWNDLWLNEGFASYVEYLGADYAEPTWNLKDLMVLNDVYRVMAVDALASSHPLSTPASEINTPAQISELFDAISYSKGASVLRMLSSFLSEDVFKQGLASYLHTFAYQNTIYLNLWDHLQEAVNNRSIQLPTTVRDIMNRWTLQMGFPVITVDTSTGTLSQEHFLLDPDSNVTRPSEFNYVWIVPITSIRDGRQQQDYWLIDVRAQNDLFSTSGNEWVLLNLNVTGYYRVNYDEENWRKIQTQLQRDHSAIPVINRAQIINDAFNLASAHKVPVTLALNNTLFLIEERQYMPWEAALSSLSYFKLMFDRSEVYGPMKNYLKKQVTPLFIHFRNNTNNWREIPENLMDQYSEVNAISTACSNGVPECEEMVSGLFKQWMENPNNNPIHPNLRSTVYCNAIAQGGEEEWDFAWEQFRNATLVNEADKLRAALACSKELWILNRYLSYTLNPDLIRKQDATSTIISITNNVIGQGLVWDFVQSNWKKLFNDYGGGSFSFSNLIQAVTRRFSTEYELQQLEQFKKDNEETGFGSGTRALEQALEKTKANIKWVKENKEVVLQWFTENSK
row,Structure (SMILES),Ki [µM]
1,CC[C@@H](C)[C@H](NC(=O)c1cc(N)cc(Cc2ccc(O)cc2)c1)C(=O)NCc1ccccc1CC(=O)O,> 100
2,Nc1cc(Cc2ccc(O)cc2)cc(C(=O)NCc2ccccc2CC(=O)O)c1,> 100

# Reference: ChEMBL document CHEMBL1155005, “Ligands to the (IRAP)/AT4 receptor encompassing a 4-hydroxydiphenylmethane scaffold replacing Tyr2” (Bioorg Med Chem, 2008)
